According to PubChem BioAssay (NCI):
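Cultured in 96-well plates, cells were exposed to test compound for 48 hours across five concentrations. Definition used: TGI = concentration required for complete inhibition of growth.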

Experiments:
Assay in all cases: NCI-60 cell line screen, 48 h
[1] = test system: SNB-75 CNS
[2] = test system: HT29 colon
[3] = test system: UO-31 renal
[4] = test system: A498 renal
[5] = test system: HOP-62 NSCLC
[6] = test system: CCRF-CEM leukemia
[7] = test system: SK-MEL-28 melanoma
[8] = test system: 786-0 renal
[9] = test system: SK-MEL-5 melanoma
[10] = test system: HL-60(TB) leukemia
[11] = test system: HCT-116 colon
[12] = test system: SR leukemia
[13] = test system: NCI-H460 lung
[14] = test system: M19-MEL melanoma
[15] = test system: OVCAR-3 ovarian
[16] = test system: CAKI-1 renal
[17] = test system: M14 melanoma
[18] = test system: SNB-19 CNS
[19] = test system: UACC-257 melanoma
[20] = test system: OVCAR-4 ovarian
[21] = test system: EKVX NSCLC
[22] = test system: SK-MEL-2 melanoma
[23] = test system: SW-620 colon
[24] = test system: NCI-H522 lung
[25] = test system: SK-OV-3 ovarian
[26] = test system: SF-268 CNS
[27] = test system: U251 CNS
[28] = test system: NCI-H226 lung
[29] = test system: RPMI-8226 leukemia
[30] = test system: IGROV1 ovarian
[31] = test system: SN12C renal
[32] = test system: LXFL 529 NSCLC
[33] = test system: SF-295 CNS
[34] = test system: KM20L2 colon
[35] = test system: KM12 colon
[36] = test system: MOLT-4 leukemia
[37] = test system: DMS 273 small cell lung
[38] = test system: TK-10 renal
[39] = test system: ACHN renal
[40] = test system: SF-539 CNS
[41] = test system: SNB-78 CNS
[42] = test system: HOP-92 NSCLC
[43] = test system: K-562 leukemia
[44] = test system: COLO 205 colon
[45] = test system: UACC-62 melanoma
[46] = test system: RXF 393 renal
[47] = test system: HCT-15 colon
[48] = test system: A549 NSCLC
[49] = test system: OVCAR-8 ovarian
[50] = test system: NCI-H23 lung
[51] = test system: XF 498 CNS
[52] = test system: OVCAR-5 ovarian
[53] = test system: LOX IMVI melanoma
[54] = test system: RXF-631 renal
[55] = test system: MALME-3M melanoma
[56] = test system: HCC-2998 colon
[57] = test system: DMS 114 small cell lung
[58] = test system: DLD-1 colon

Measured: TGI

CCC(=O)C(C(=O)CC)c1c(OC(=O)c2ccccc2)ccc(O)c1C(=O)OC
> 100 µM: [1] | [2] | [3] | [4] | [5] | [6] | [7] | [8] | [9] | [10] | [11] | [12] | [13] | [14] | [15] | [16] | [17] | [18] | [19] | [20] | [21] | [22] | [23] | [24] | [25] | [26] | [27] | [28] | [29] | [30] | [31] | [32] | [33] | [34] | [35] | [36] | [37] | [38] | [39] | [40] | [41] | [42] | [43] | [44] | [45] | [46] | [47] | [48] | [49] | [50] | [51] | [52] | [53] | [54]

CN1CCCN2CCN(C)CCCN(CC1)CC2
> 100 µM: [1] | [55] | [56] | [3] | [4] | [5] | [6] | [7] | [8] | [10] | [11] | [12] | [13] | [14] | [16] | [17] | [20] | [22] | [24] | [25] | [26] | [28] | [29] | [30] | [57] | [31] | [32] | [36] | [37] | [40] | [41] | [42] | [43] | [44] | [45] | [58] | [50] | [51] | [53] | [54]
